Experimental data published in patent publication US5741781A, “Mercaptoalkanoyldipeptide compounds” (Adir et Compagnie, priority 1995, dated 1998).

What was measured:
[1] = biological target: neutral endopeptidase (NEP) (Homo sapiens, UniProt P08473); experiment: Inhibitory effect in vitro on neutral endopeptidase, [3H]-D-Ala2-Leu-encephalin as substrate; assay type: biochemical; conditions: in vitro
[2] = biological target: peptidyldipeptidase A (ACE) (Homo sapiens, UniProt P12821); experiment: Inhibitory effect in vitro on peptidyldipeptidase A, Z-Phe-His-Leu as substrate; assay type: biochemical
Sequence of peptidyldipeptidase A (ACE) (P12821 30-1306, species assumed): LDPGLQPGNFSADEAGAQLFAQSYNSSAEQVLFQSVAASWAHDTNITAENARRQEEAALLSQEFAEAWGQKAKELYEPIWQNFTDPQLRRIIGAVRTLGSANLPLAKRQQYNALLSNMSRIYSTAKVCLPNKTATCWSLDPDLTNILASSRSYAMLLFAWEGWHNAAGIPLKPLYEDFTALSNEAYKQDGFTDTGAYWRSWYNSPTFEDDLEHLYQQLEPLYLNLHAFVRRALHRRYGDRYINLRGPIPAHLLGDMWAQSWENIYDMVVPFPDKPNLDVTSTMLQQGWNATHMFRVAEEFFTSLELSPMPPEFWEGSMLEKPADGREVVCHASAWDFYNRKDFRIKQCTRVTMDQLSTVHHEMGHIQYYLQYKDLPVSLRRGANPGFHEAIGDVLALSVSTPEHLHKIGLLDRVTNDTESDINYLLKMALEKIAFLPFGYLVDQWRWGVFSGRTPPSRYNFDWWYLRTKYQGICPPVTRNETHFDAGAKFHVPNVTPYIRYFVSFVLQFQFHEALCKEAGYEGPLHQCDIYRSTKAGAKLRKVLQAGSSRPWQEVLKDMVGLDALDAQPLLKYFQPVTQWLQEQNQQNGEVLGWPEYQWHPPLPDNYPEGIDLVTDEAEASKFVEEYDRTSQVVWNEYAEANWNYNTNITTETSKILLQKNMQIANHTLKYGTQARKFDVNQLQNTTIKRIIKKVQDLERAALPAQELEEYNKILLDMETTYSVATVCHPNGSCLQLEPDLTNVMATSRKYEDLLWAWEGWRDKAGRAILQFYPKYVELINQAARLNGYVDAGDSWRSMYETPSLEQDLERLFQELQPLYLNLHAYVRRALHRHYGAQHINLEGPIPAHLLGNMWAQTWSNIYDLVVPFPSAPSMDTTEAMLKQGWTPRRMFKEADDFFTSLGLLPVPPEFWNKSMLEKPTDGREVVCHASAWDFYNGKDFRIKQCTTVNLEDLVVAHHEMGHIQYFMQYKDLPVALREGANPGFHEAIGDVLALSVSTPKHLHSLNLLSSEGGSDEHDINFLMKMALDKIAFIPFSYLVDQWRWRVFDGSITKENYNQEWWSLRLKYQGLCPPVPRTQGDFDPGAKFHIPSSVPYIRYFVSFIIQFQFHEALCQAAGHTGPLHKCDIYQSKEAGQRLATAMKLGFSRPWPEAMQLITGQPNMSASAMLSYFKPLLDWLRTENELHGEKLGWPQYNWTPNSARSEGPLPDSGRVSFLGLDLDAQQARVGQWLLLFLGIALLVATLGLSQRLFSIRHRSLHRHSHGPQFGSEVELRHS
Protocol: The inhibitory properties of the compounds of the invention are measured using [^3 H]-D-Ala^2 -Leu-encephalin as substrate for neutral endopeptidase, in accordance with the protocol described by Llorens et al. (Biochem. Biophys. Res. Commun., 96, (1980), 1710 sqq), and Z-Phe-His-Leu as substrate in the case of peptidyldipeptidase A in accordance with the protocol described in Biochem. Biophys. Acta, 206, (1970), 136-142.

Sequence of neutral endopeptidase (NEP) (P08473 whole entry, species assumed): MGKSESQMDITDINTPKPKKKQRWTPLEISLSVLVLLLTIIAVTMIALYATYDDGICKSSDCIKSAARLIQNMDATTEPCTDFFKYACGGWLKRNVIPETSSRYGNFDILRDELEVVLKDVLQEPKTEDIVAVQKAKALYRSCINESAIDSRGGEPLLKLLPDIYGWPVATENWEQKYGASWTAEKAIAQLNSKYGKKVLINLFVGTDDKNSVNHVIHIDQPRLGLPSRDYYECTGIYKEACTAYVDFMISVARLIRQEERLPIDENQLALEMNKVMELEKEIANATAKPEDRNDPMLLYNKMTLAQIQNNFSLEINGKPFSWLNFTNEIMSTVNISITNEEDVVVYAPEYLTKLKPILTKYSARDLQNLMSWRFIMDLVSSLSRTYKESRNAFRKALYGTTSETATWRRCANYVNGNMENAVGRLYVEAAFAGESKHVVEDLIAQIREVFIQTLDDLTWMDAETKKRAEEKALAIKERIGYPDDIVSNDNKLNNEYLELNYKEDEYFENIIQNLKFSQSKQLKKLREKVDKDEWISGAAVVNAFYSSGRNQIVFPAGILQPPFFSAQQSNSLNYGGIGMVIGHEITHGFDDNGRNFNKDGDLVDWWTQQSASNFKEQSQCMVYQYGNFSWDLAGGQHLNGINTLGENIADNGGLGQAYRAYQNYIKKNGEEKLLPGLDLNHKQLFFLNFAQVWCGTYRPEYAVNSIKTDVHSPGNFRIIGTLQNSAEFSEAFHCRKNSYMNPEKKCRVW

Row | SMILES | IC50 [1] | IC50 [2]
1 | COc1ccc(CC(S)C(=O)NCC(=O)N2C(c3ccccc3OC)CC[C@H]2C(=O)O)cc1 (some centres unmarked) [Example 28, N-[N-[2-Mercapto-3-(para-methoxyphenyl)propanoyl]glycyl]-5-(orthomethoxyphenyl)proline] | 2.5 ± 0.6 nM | 2.2 ± 0.2 nM
2 | Cc1ccccc1C1CC[C@@H](C(=O)O)N1C(=O)CNC(=O)C(S)Cc1ccc(O)cc1 (some centres unmarked) [Example 34, N-[N-[2-Mercapto-3-(para-hydroxyphenyl)propanoyl]glycyl]-5-(ortho-methylphenyl)proline] | 3.1 ± 0.3 nM | 5.2 ± 0.5 nM
3 | Cc1ccc(C2CC[C@@H](C(=O)O)N2C(=O)CNC(=O)C(S)Cc2ccc(O)cc2)cc1 (some centres unmarked) [Example 32, N-[N-[2-Mercapto-3-(para-hydroxyphenyl)propanoyl]glycyl]-5-(para-methylphenyl)proline] | 5 ± 0.5 nM | 3.2 ± 0.4 nM
4 | O=C(NCC(=O)N1C(c2ccc(O)cc2)CC[C@H]1C(=O)O)C(S)Cc1ccc(O)cc1 (some centres unmarked) [Example 22, N-[N-[2-Mercapto-3-(para-hydroxyphenyl)propanoyl]glycyl]-5,(para-hydroxyphenyl)proline] | 6 ± 1 nM | 0.45 ± 0.05 nM
5 | O=C(NCC(=O)N1C(c2ccccc2O)CC[C@H]1C(=O)O)C(S)Cc1ccccc1 (some centres unmarked) [Example 5, N-[N-(2-Mercapto-3-phenylpropanoyl)glycyl]-5-(ortho-hydroxyphenyl)-proline] | 1.1 ± 0.3 nM | 0.5 ± 0.1 nM
6 | O=C(NCC(=O)N1C(c2cccc(O)c2)CC[C@H]1C(=O)O)C(S)Cc1ccccc1 (some centres unmarked) [Example 20, N-[N-(2-Mercapto-3-phenylpropanoyl)glycyl]-5-(meta-hydroxyphenyl)proline] | 2.4 ± 0.8 nM | 1.4 ± 0.7 nM
7 | Cc1ccccc1C1CC[C@@H](C(=O)O)N1C(=O)CNC(=O)C(S)Cc1ccccc1 (some centres unmarked) [Example 36, N-[N-(2-Mercapto-3-phenylpropanoyl)glycyl]-5-(ortho-methylphenyl)proline] | 4 ± 0.6 nM | 3.5 ± 0.6 nM
8 | O=C(NCC(=O)N1C(c2ccccc2)CC[C@H]1C(=O)O)C(S)Cc1ccccc1 (some centres unmarked) [Example 3, N-[N-(2-Mercapto-3-phenylpropanoyl)glycyl]-5-phenylproline] | 1.6 ± 0.3 nM | 0.55 ± 0.05 nM
9 | O=C(NCC(=O)N1C(c2ccccc2)CC[C@H]1C(=O)O)C(S)Cc1ccc(O)cc1 (some centres unmarked) [Example 10, N-[N-[2-Mercapto-3-(para-hydroxyphenyl)propanoyl]glycyl]-5-phenylproline] | 3.4 ± 0.8 nM | 4.2 ± 0.4 nM
10 | O=C(NCC(=O)N1C(c2cccc(O)c2)CC[C@H]1C(=O)O)C(S)Cc1ccc(O)cc1 (some centres unmarked) [Example 18, N-[N-[2-Mercapto-3-(para-hydroxyphenyl)propanoyl]glycyl]-5-(metahydroxyphenyl)proline] | 1.6 ± 0.3 nM | 0.7 ± 0.2 nM
11 | Nc1ccc(C2CC[C@@H](C(=O)O)N2C(=O)CNC(=O)C(S)Cc2ccc(O)cc2)cc1 (some centres unmarked) [Example 16, N-[N-[2-Mercapto-3-(para-hydroxyphenyl)propanoyl]glycyl]-5-(para-aminophenyl)proline] | 26 ± 3 nM | 23 ± 3 nM
12 | Cc1ccc(C2CC[C@@H](C(=O)O)N2C(=O)CNC(=O)C(S)Cc2ccccc2)cc1 (some centres unmarked) [Example 30, N-[N-(2-Mercapto-3-phenylpropanoyl)glycyl]-5-(para-methylphenyl)proline] | 10 ± 2 nM | 8.2 ± 0.5 nM
13 | O=C(NCC(=O)N1C(c2ccccc2O)CC[C@H]1C(=O)O)C(S)Cc1ccc(Cl)cc1 (some centres unmarked) [Example 24] | 1.2 ± 0.4 nM | 0.9 ± 0.06 nM
14 | COc1ccc(CC(S)C(=O)NCC(=O)N2C(c3ccccc3O)CC[C@H]2C(=O)O)cc1 (some centres unmarked) [Example 26, N-[N-[2-Mercapto-3-(para-methoxyphenyl)propanoyl]glycyl]-5-(orthohydroxyphenyl)proline] | 2.3 ± 0.3 nM | 0.4 ± 0.05 nM
15 | O=C(NCC(=O)N1C(c2ccccc2O)CC[C@H]1C(=O)O)C(S)Cc1ccc(O)cc1 (some centres unmarked) [Example 7, N-[N-[2-Mercapto-3-(para-hydroxyphenyl)propanoyl]glycyl]-5-(ortho-hydroxyphenyl)proline] | 4.3 ± 0.3 nM | 0.35 ± 0.05 nM
16 | Nc1ccc(CC(S)C(=O)NCC(=O)N2C(c3ccccc3)CC[C@H]2C(=O)O)cc1 (some centres unmarked) [Example 14, N-[N-[2-Mercapto-3-(para-aminophenyl)propanoyl]glycyl]-5-phenylproline] | 1.8 ± 0.4 nM | 3.5 ± 0.5 nM
